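Test compounds were applied to cells in 96-well plates for 48 hours at 5 doses. The concentration for 50% growth inhibition is given as GI50. Definition used: TGI = concentration required for complete inhibition of growth.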
Legend:
Test in all cases: growth of human tumour cells (NCI), 48 h
M14 melanoma = test system: M14 melanoma
SK-OV-3 ovarian = test system: SK-OV-3 ovarian
NCI-H460 lung = test system: NCI-H460 lung
MALME-3M melanoma = test system: MALME-3M melanoma
PC-3 prostate = test system: PC-3 prostate
OVCAR-4 ovarian = test system: OVCAR-4 ovarian
UACC-62 melanoma = test system: UACC-62 melanoma
A498 renal = test system: A498 renal
MDA-MB-231 breast = test system: MDA-MB-231 breast
T-47D breast = test system: T-47D breast

SMILES	TGI (M14 melanoma) [µM]	TGI (SK-OV-3 ovarian) [µM]	TGI (NCI-H460 lung) [µM]	TGI (MALME-3M melanoma) [µM]	TGI (PC-3 prostate) [µM]	TGI (OVCAR-4 ovarian) [µM]	TGI (UACC-62 melanoma) [µM]	TGI (A498 renal) [µM]	TGI (MDA-MB-231 breast) [µM]	TGI (T-47D breast) [µM]	GI50 (SK-OV-3 ovarian) [µM]	GI50 (NCI-H460 lung) [µM]	GI50 (MALME-3M melanoma) [µM]	GI50 (OVCAR-4 ovarian) [µM]	GI50 (UACC-62 melanoma) [µM]	GI50 (A498 renal) [µM]	GI50 (M14 melanoma) [µM]
Cc1cccc2c(=O)c3c(O)cc(O)cc3n(C)c12	> 100	> 100	> 100	> 100	> 100	> 100	> 100	98.7	> 100								
COC1OC2COC(=O)c3cc(O)c(O)c(O)c3-c3c(cc(O)c(O)c3O)C(=O)OC2C(O)C1O (centres undefined)	> 100	> 100	> 100	> 100	> 100	> 100	47.1		> 100								
Nc1nc(SCc2ccccc2Cl)c2ncn(C3OC(CO)C(O)C3O)c2n1 (centres undefined)	> 100	> 100	> 100	> 100		> 100	> 100	> 100									
COc1cccc(NC(=O)CC(=O)NN)c1		> 100	> 100	> 100	> 100	> 100	> 100	> 100	> 100	> 100							
[CH3][Sn]([CH3])([CH3])[S]C(=S)N1CCOCC1		29.3	4.38	14.8		4.21		73.8			9.81	1.05	3.49	0.818	0.553	15.3	
C[N+]1(C)CCCC(C#N)(c2ccccc2)CC1 (centres undefined)	> 100	> 100	> 100	> 100	> 100	> 100		> 100		> 100							
C=CCOCC1C2CCC3(OCCO3)C21 (centres undefined)	> 100	> 100	> 100	> 100	> 100	> 100	> 100		> 100								
C/C(=C\C(=O)Nc1ccc2n[nH]nc2c1)Nc1ccc2n[nH]nc2c1	> 100	> 100	> 100	> 100		> 100	> 100	> 100									
COc1ccc(OC)c2c(C(C)=O)cccc12		> 100	> 100	> 100	> 100		> 100	> 100	> 100	> 100							
ClC1=NSSC1(Cl)Cl	40.1		> 100	> 100	> 100	> 100	> 100	> 100	71.2								
COc1cc2c(c(OC)c1OC)C(=O)c1c(O)cc(C)c(OC)c1C2=O	> 100		> 100	> 100	> 100	> 100		> 100	> 100								
S=C(NCc1ccccn1)N/N=C/c1ccccn1	> 100	97.9	2.7	38.3	> 84.9	> 30.5	4.12			> 61.5							
Cc1c2cc[n+](Cc3ccc(I)cc3)cc2c(C)c2c1[nH]c1ccccc12		> 13.5	1.93	1.81			16.6	> 25									
O=CN1CCN(c2ccc3ccc(=O)[nH]c3n2)CC1	> 100	> 100	> 100	> 100	> 100	> 100	> 100		> 100								
Nc1nc(Cl)c(CO)c(NCC2(CO)CCC2)n1			> 100	> 100	> 100	> 100		> 100	> 100								
C[C@]12CC[C@H]3[C@@H](CC=C4C[C@@H](O)CC[C@@]43C)[C@@H]1C/C(=C\c1cccnc1)[C@@H]2O	> 100	34.2	> 100	> 100	> 100	58.9	39.8	42.9	57.8								
CC(=O)N[C@@H](Cc1ccc(O)cn1)C(=O)NCc1ccc(Cl)cc1	> 100	> 100	> 100	> 100	> 100	> 100	> 100	> 100		> 100							
Oc1c(Br)cc2c(c1Br)-c1c(c(O)c3c4c1=NCCC=4C=N3)NCC2		54.8	27.9			23.5	11.4	45.7									
N#C[S-].[La+3].c1ccc(-c2ccccn2)nc1.c1ccc(-c2ccccn2)nc1.c1ccc(-c2ccccn2)nc1	27.9	99.6	88.2	60.9		> 100	50.3				31.7	22.5	23.3	20.4	19.5		12.1
CCOC(=O)C(O)(CC1=NC(C(=O)OC)(C(=O)OC)C(c2cccc(C=O)c2)O1)C(=O)OCC (centres undefined)	> 100	> 100	> 100		> 100	> 100	> 100	> 100		> 100							
O=c1cc(-c2cccc(OC(F)(F)F)c2)[nH]c2ccc(N3CCCC3)cc12	> 100			> 100			96.8			> 100							

From PubChem BioAssay (NCI)
